Experimental data: patent US20090291964A1, “Potentiators of Antibacterial Activity” (priority 2003, published 2009)
Like-named read-outs stand apart in the source and are kept apart here.

What was measured:
Assay type in all cases: cell-based
[1] = tested on: S. aureus ATCC 29213; assay: Minimal effective concentration (MEC) of EPI for gatifloxacin; conditions: lowest amount of EPI which produces the maximum effect on the MIC of gatifloxacin
Procedure: (§1) The MEC was determined as the minimal concentration of EPI that produced the maximal reduction in substrate MIC.
(§2) Since any given compound may be recognized by an unknown number of efflux pumps in a particular organism, we reasoned that the MEC of A-106 and C-9 should vary for different antibiotics. Also, the MEC of A-106 and C-9 should vary with the degree of efflux expression in a given strain. […] This was confirmed with two other wild type strains, SA-8325-4 and SA-1199 (Table 3).

[2] = tested on: S. aureus ATCC 29213; assay: MIC by NCCLS microdilution, antibacterial agents with and without EPI; conditions: at 100 μg/ml
[3] = tested on: S. aureus SA-1199B; assay: Minimal effective concentration (MEC) of EPI for gatifloxacin; conditions: for MEC: S. aureus SA-1199B (NorA overproducer), lowest amount of EPI which produces the maximum effect on the MIC of gatifloxacin; for MEC for gatifloxacin: efflux mutant, strain not named in the sentence (SA-1199B by context)
Procedure: as §1, §2
(§3) The MEC of A-106 and C-9 for gatifloxacin was determined in these efflux mutants. […] A similar result was obtained with efflux mutant K2068, where the MEC for A-106 was 6.25 μg/ml and the MEC for C-9 was 3.1 μg/ml. […] This may reflect that either gatifloxacin is recognized by fewer pumps than EtBr or it is a poorer efflux substrate in general. This is consistent with the finding that the activity of A-106 was non-saturable for EtBr but is saturable for gatifloxacin.

[4] = tested on: S. aureus K2068; assay: as above; conditions: for MEC: S. aureus K2068 (nonNorA pump overproducer), lowest amount of EPI which produces the maximum effect on the MIC of gatifloxacin; for MEC for gatifloxacin: efflux mutant K2068
Procedure: as §1, §2, §3

[5] = tested on: S. aureus SA-1199 (clinical isolate, susceptible); assay: MIC of fluoroquinolones with and without EPI; conditions: for MIC: Staphylococcus aureus, read-out: MIC of EtBr with EPI
Text: (§4) A variety of strains may be used in these experiments, including, but not limited to, S. aureus ATCC 29213, E. faecalis ATCC 29212, and S. pneumoniae, S. aureus strains SA-1199, SA-1199B, SA-8325-4, and SA-K2068. S. aureus ATCC 29213, E. faecalis ATCC 29212, and S. pneumoniae ATCC 10015 were obtained from the American Type Culture Collection (Manassas, Va.). S. aureus strains SA-1199 (clinical isolate, susceptible), SA-1199B (SA-1199, NorA overproducing, also has A116E GrlA mutation), SA-8325-4 (NCTC 8325 cured of prophages), SA-K2068 (SA-8325-4, non-NorA multidrug efflux pump overproducing mutation) were obtained from Glenn Kaatz (Kaatz et al., “Identification and characterization of a novel efflux-related multidrug resistance phenotype in Staphylococcus aureus”, J. Antimicrob. Chemother. 50:833-838 (2002); 1993; Kaatz et al., “Phenothiazines and thioxanthenes inhibit multidrug efflux pump activity in Staphylococcus aureus”, Antimicrob. Agents Chemother. 47:719-726, Kaatz et al., “Efflux-mediated fluoroquinolone resistance in Staphylococcus aureus. Antimicrob. Agents Chemother.”, 37:1086-1094, 1993)).
(§5) 3% sterile laked horse blood (Quad Five, Ryegate, Mont.) was added to assays for E. faecalis and S. Pneumoniae. A final concentration of 1% DMSO was present in all assays.

[6] = tested on: S. aureus SA-8325-4; assay: MIC of fluoroquinolones with and without EPI; conditions: for MIC: Staphylococcus aureus
Text: as §4, §5

[7] = tested on: S. aureus ATCC 29213; assay: Ethidium bromide efflux fluorescence assay; conditions: EPIs at 4 times MEC for EtBr, A-106 at 100 μg/ml; versus control cells without EPI
Procedure: S. aureus cells were loaded with EtBr as described in Example 1. EPIs were used at 4XMEC (minimal effective concentration) (25 μg/ml reserpine; 100 μg/ml VX-710 (compound A-106 in Table A-2); 6.25 μg/ml VX-853 (compound C-9 in Table C-I), and no EPI control—as labeled). Fluorescence was continuously monitored over time at room temperature and results are an average of at least 3 replicates.
Ethidium bromide (EtBr) efflux assays with S. aureus were performed using the method described by Markham et al. (Markham, et al., “Multiple Novel Inhibitors of the NorA Multidrug Transporter of Staphylococcus aureus”, Antimicrob. Agents Chemother. 43:2404-2408 (1999)). […] Ethidium bromide efflux was determined by continuously monitoring fluorescence at an excitation wavelength of 530 nm and an emission wavelength of 600 nm in a black 96-well polystyrene plate with clear, flat bottom (Costar #3904, Cambridge, Mass.) using a SpectraMax Gemini spectrofluorimeter (Molecular Devices, Sunnydale, Calif.). […]
Markham et al., “Multiple Novel Inhibitors of the NorA Multidrug Transporter of Staphylococcus aureus”, Antimicrob. […] Since ethidium only fluoresces when it is bound to nucleic acid inside of cells, a decrease in fluorescence over time is due to active efflux. […]

[8] = S. aureus SA-1199, EPI at 4X the MEC for EtBr, VX-710 at 100 μg/ml
[9] = S. aureus SA-8325-4, EPI at 4X the MEC for EtBr, VX-710 at 100 μg/ml

COc1cc(C(=O)C(=O)N(C)[C@@H](Cc2ccc(Cl)cc2)C(=O)N(Cc2ccccc2)C(CCc2ccncc2)CCc2ccncc2)cc(OC)c1OC [C-9, (S)—N-Benzyl-2-(methyl-(2-oxo-2-(3,4,5-trimethoxyphenyl)acetyl)amino)-3-(4-chloro-phenyl)-N-(3-pyridin-4-yl-1-(2-pyridin-4-yl-ethyl)propyl)propionamide]
MEC [1]: >100 µg/mL
intrinsic antibacterial activity of EPI [2]: no intrinsic antibacterial activity
MEC [3]: 3.1 µg/mL
MEC for gatifloxacin [3]: 3.1 µg/mL
MEC [4]: 3.1 µg/mL
MEC for gatifloxacin [4]: 3.1 µg/mL
MIC of ciprofloxacin with EPI [5, 8]: 0.125 µg/mL
MIC of gatifloxacin with EPI [5, 8]: 0.063 µg/mL
MIC of gentamicin with EPI [5, 8]: 0.125 µg/mL
MIC of levofloxacin with EPI [5, 8]: 0.125 µg/mL
MIC of norfloxacin with EPI [5, 8]: 0.25 µg/mL
MIC [5]: 1.6 µg/mL
MIC of ciprofloxacin with EPI [6, 9]: 0.125 µg/mL
MIC of gatifloxacin with EPI [6, 9]: 0.125 µg/mL
MIC of gentamicin with EPI [6, 9]: 0.063 µg/mL
MIC of levofloxacin with EPI [6, 9]: 0.25 µg/mL
MIC of norfloxacin with EPI [6, 9]: 0.25 µg/mL
MIC ([6]; SA83254, read-out: MIC of EtBr with EPI): 0.8 µg/mL
loss of EtBr fluorescence over time (FIG. 1) [7]: much more gradual loss of fluorescence

COc1cc(C(=O)C(=O)N2CCCC[C@H]2C(=O)OC(CCCc2cccnc2)CCCc2cccnc2)cc(OC)c1OC [A-106]
MEC [1]: >100 µg/mL
intrinsic antibacterial activity of EPI [2]: no intrinsic antibacterial activity
MEC [3]: 12.5 µg/mL
MEC for gatifloxacin [3]: 12.5 µg/mL
MEC [4]: 6.25 µg/mL
MEC for gatifloxacin [4]: 6.25 µg/mL
MIC of EtBr with EPI [5, 8]: 0.2 µg/mL
MIC of ciprofloxacin with EPI [5, 8]: 0.063 µg/mL
MIC of gatifloxacin with EPI [5, 8]: 0.063 µg/mL
MIC of gentamicin with EPI [5, 8]: 0.125 µg/mL
MIC of levofloxacin with EPI [5, 8]: 0.125 µg/mL
MIC of norfloxacin with EPI [5, 8]: 0.125 µg/mL
MIC of EtBr with EPI [6, 9]: <0.1 µg/mL
MIC of ciprofloxacin with EPI [6, 9]: 0.125 µg/mL
MIC of gatifloxacin with EPI [6, 9]: 0.125 µg/mL
MIC of gentamicin with EPI [6, 9]: 0.063 µg/mL
MIC of levofloxacin with EPI [6, 9]: 0.25 µg/mL
MIC of norfloxacin with EPI [6, 9]: 0.25 µg/mL
loss of EtBr fluorescence over time (FIG. 1) [7]: much more gradual loss of fluorescence

COC(=O)[C@H]1[C@H]2C[C@@H]3c4[nH]c5cc(OC)ccc5c4CCN3C[C@H]2C[C@@H](OC(=O)c2cc(OC)c(OC)c(OC)c2)[C@@H]1OC [reserpine, reference compound]
MEC [1]: >100 µg/mL
MEC [3]: 25 µg/mL
MEC [4]: 3.1 µg/mL
MIC of ciprofloxacin with EPI [5, 8]: 0.063 µg/mL
MIC of gatifloxacin with EPI [5, 8]: 0.063 µg/mL
MIC of gentamicin with EPI [5, 8]: 0.125 µg/mL
MIC of levofloxacin with EPI [5, 8]: 0.125 µg/mL
MIC of norfloxacin with EPI [5, 8]: 0.125 µg/mL
MIC [5, 8]: 0.4 µg/mL
MIC of ciprofloxacin with EPI [6, 9]: 0.125 µg/mL
MIC of gatifloxacin with EPI [6, 9]: 0.125 µg/mL
MIC of gentamicin with EPI [6, 9]: 0.063 µg/mL
MIC of levofloxacin with EPI [6, 9]: 0.25 µg/mL
MIC of norfloxacin with EPI [6, 9]: 0.25 µg/mL
MIC ([6]; SA83254, S. aureus SA-8325-4, EPI at 4X the MEC for EtBr, VX-710 at 100 μg/ml, read-out: MIC of EtBr with EPI): 0.4 µg/mL
